Patent US6903107B1, “Serine protease inhibitor” (Akzo Nobel N.V., priority 1998, dated 2005)

Target: T1, Human thrombin (Homo sapiens, UniProt P00734)
T1 construct: purchased Centraal Laboratorium voor Bloedtransfusie, Amsterdam, The Netherlands
Test: Anti-thrombin assay (hydrolysis of chromogenic substrate S-2238)
Assay type: biochemical
Conditions: chromogenic substrate S-2238, TNP buffer, pH 7.4, 37° C.; read-out: Antithrombin activity: IC50
Procedure: Thrombin (Factor IIa) is a factor in the coagulation cascade. The anti-thrombin activity of compounds of the present invention was assessed by measuring spectrophotometrically the rate of hydrolysis of the chromogenic substrate s-2238 exterted by thrombin. This assay for anti-thrombin activity in a buffer system was used to assess the IC50-value of a test compound.
Test medium: Tromethamine-NaCl-polyethylene glycol 6000 (TNP) buffer
Reference compound: 12581 (Kabi)
Vehicle: TNP buffer. Solubilisation can be assisted with dimethylsulphoxide, methanol, ethanol, acetonitrile or tert.-butyl alcohol which are without adverse effects in concentrations up to 2.5% in the final reaction mixture.
Technique Reagents* • 1. Tromethamine-NaCl (TN) buffer Composition of the buffer:
• The pH of the solution is adjusted to 7.4 at 37° C. with HCl (10 mmol.l^−1). • 2. TNP buffer Polyethylene glycol 6000 is dissolved in TN buffer to give a concentration of 3 g.l^−1. • 3. S-2238 solution One vial S-2238 (25 mg; Kabi Diagnostica, Sweden) is dissolved in 20 ml TN buffer to give a concentration of 1.25 mg.ml^−1 (2 mmol.l^−1). • 4. Thrombin solution Human thrombin (16 000 nKat.vial^−1; Centraal Laboratorium voor Bloedtransfusie, Amsterdam, The Netherlands) is dissolved in TNP buffer to give a stock solution of 835 nKat.ml^−1. Immediately before use this solution is diluted with TNP buffer to give a concentration of 3.34 nKat.ml^−1. • All ingredients used are of analytical grade • For aqueous solutions ultrapure water (Milli-Q quality) is used.
Preparation of test and reference compound solutions
The test and reference compounds are dissolved in Milli-Q water to give stock concentrations of 10^−2 mol.l^−1. Each concentration is stepwise diluted with the vehicle to give concentrations of 10^−3, 10^−4 and 10^−5 mol.l^−1. The dilutions, including the stock solution, are used in the assay (final concentrations in the reaction mixture: 3·10^−3; 10^−3; 3·10^−4; 10^−4; 3.10^−5; 10^−5; 3.10^−6 and 10^−6 mol.l^−1, respectively).
At room temperature 0.075 ml and 0.025 ml test compound or reference compound solutions or vehicle are alternately pipetted into the wells of a microtiter plate and these solutions are diluted with 0.115 ml and […] TNP buffer, respectively. An aliquot of 0.030 ml S-2238 solution is added to each well and the plate is pre-heated and pre-incubated with shaking in an incubator (Amersham) for 10 min. at 37° C. Following pre-incubation the hydrolysis of S-2238 is started by addition of 0.030 ml thrombin solution to each well. The plate is incubated (with shaking for 30 s) at 37° C. Starting after 1 min of incubation, the absorbance of each sample at 405 nm is measured every 2 min. for a period of 90 min. using a kinetic microtiter plate reader (Twinreader plus, Flow Laboratories). All data are collected in an IBM personal computer using LOTUS-MEASURE. For each compound concentration (expressed in mol.l^−1 reaction mixture) and for the blank the absorbance is plotted versus the reaction time in min.
Evaluation of responses: For each final concentration the maximum absorbance was calculated from the assay plot. The IC50-value (final concentration, expressed in μmol.l^−1, causing 50% inhibition of the maximum absorbance of the blank) was calculated using the logit transformation analysis according to Hafner et al. (Arzneim.-Forsch./Drug Res. 1977; 27(II): 1871-3).

Row | IC50 [nM] | Compound
1 | 500 | Nc1nccc2cc(OCCC3CCCCN3C(=O)C(CC3CCCCC3)NC3CCCCC3)ccc12 [Example 11, 1-(N-cyclohexyl-D-cyclohexylalanine)-2-(2-(1-amino-isoquinolin-6-oxy)-ethyl)-piperidine]
2 | 320 | Nc1nccc2cc(OCCC3CCCCN3C(=O)C(CC3CCCCC3)NCC(=O)NC3CCCC3)ccc12 [Example 9, 1-(N-cyclopentylaminocarbonylmethyl-D-cyclohexylalaninyl)-2-(2-(1-amino-isoquinolin-6-oxy)-ethyl)-piperidine]
3 | 410 | CC1(C)C2CCC1(CS(=O)(=O)NC(CC1CCCCC1)C(=O)N1CCCCC1CCOc1ccc3c(N)nccc3c1)C(=O)C2 [Example 1, (2S)-1-(N-(−)-camphorsulphonyl-D-cyclohexylalaninyl)-2-(2-(1-amino-isoquinolin-6-oxy)-eythyl)-piperidine]

More lines, now with the values behind:

Row | Compound | IC50 [nM]
4 | 1-(N-cyclooctyl-γ-tert-butyl-L-glutamyl)-2-(2-(1-amino-isoquinolin-6-oxy)-ethyl)-piperidine [Example 8] | 610
5 | Nc1nccc2cc(OCCC3CCCCN3C(=O)C(CC3CCCCC3)NCC(=O)Nc3ccccc3)ccc12 [Example 10, 1-(N-anilinocarbonylmethyl-D-cyclohexylalaninyl)-2-(2-(1-amino-isoquinolin-6-oxy)-ethyl)-piperidine] | 1350
